Data as given in patent US7772241B2, “Variolin derivatives and their use as antitumor agents” (Pharma Mar S.A., priority 2001, dated 2010).

How the values were obtained:
[1] = Inhibition of cells growth by colorimetric (SRB) assay, HMEC1; settings: human, HMEC1 cells, LC50 H-MEC-1, SRB assay, 48 hours exposure
HMEC1 = test: as above; settings: for GI50: Homo sapiens, HMEC-1, 48 h, read-out: GI50 H-MEC-1, SRB assay, 48 hours exposure; for TGI H-MEC-1: SRB assay, 48 hours exposure, in M (unit assumed)
DU-145 = test: Inhibition of cells growth by colorimetric (SRB) assay, DU-145; settings: for GI50 / CC50: Homo sapiens, DU-145, 48 h; for GI50: read-out: GI50 DU-145, SRB assay, 48 hours exposure; for CC50: read-out: LC50 DU-145, SRB assay, 48 hours exposure; for TGI DU-145: SRB assay, 48 hours exposure
Outline: (§1)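 Read-out is sulforhodamine B protein stain (OD 490 nm) after cold TCA fixation, following 48 h continuous exposure to samples spanning 10 to 10^−8 μg/ml.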

LoVo = test: Inhibition of cells growth by colorimetric (SRB) assay, LoVo; settings: for GI50 / CC50: Homo sapiens, LoVo, 48 h; for GI50: read-out: GI50 LOVO, SRB assay, 48 hours exposure; for CC50: read-out: LC50 LOVO, SRB assay, 48 hours exposure; for TGI LOVO: SRB assay, 48 hours exposure
Outline: as §1

K-562 = test: Inhibition of cells growth by colorimetric (SRB) assay, K-562; settings: for GI50 / CC50: Homo sapiens, K562, 48 h; for GI50: read-out: GI50 K-562, SRB assay, 48 hours exposure; for CC50: read-out: LC50 K-562, SRB assay, 48 hours exposure; for TGI K-562: SRB assay, 48 hours exposure
Outline: as §1

IGROV-ET = test: Inhibition of cells growth by colorimetric (SRB) assay, IGROV-ET; settings: for GI50 / CC50: Homo sapiens, 48 h; for GI50: read-out: GI50 IGROV-ET, SRB assay, 48 hours exposure; for CC50: read-out: LC50 IGROV-ET, SRB assay, 48 hours exposure; for TGI IGROV-ET: SRB assay, 48 hours exposure
Outline: as §1

LNCaP = test: Inhibition of cells growth by colorimetric (SRB) assay, LNCaP; settings: for GI50 / CC50: Homo sapiens, LNCaP, 48 h; for GI50: read-out: GI50 LN-caP, SRB assay, 48 hours exposure; for CC50: read-out: LC50 LN-caP, SRB assay, 48 hours exposure; for TGI LN-caP: SRB assay, 48 hours exposure
Outline: as §1

SK-OV-3 = test: Inhibition of cells growth by colorimetric (SRB) assay, SK-OV-3; settings: for GI50 / CC50: Homo sapiens, SK-OV-3, 48 h; for GI50: read-out: GI50 SKOV-3, SRB assay, 48 hours exposure; for CC50: read-out: LC50 SKOV-3, SRB assay, 48 hours exposure; for TGI SKOV-3: SRB assay, 48 hours exposure
Outline: as §1

PANC-1 = test: Inhibition of cells growth by colorimetric (SRB) assay, PANC-1; settings: for GI50 / CC50: Homo sapiens, PANC-1, 48 h; for GI50: read-out: GI50 PANC-1, SRB assay, 48 hours exposure; for CC50: read-out: LC50 PANC-1, SRB assay, 48 hours exposure; for TGI PANC-1: SRB assay, 48 hours exposure
Outline: as §1

A-549 = test: Inhibition of cells growth by colorimetric (SRB) assay, A-549; settings: for GI50 / CC50: Homo sapiens, A549, 48 h; for GI50: read-out: GI50 A-549, SRB assay, 48 hours exposure; for CC50: read-out: LC50 A-549, SRB assay, 48 hours exposure; for TGI A-549: SRB assay, 48 hours exposure
Outline: as §1

LoVo-Dox = test: Inhibition of cells growth by colorimetric (SRB) assay, LoVo-Dox; settings: for GI50 / CC50: Homo sapiens, 48 h; for GI50: read-out: GI50 LOVO-DOX, SRB assay, 48 hours exposure; for CC50: read-out: LC50 LOVO-DOX, SRB assay, 48 hours exposure; for TGI LOVO-DOX: SRB assay, 48 hours exposure
Outline: as §1

SK-MEL-28 = test: Inhibition of cells growth by colorimetric (SRB) assay, SK-MEL-28; settings: for GI50 / CC50: Homo sapiens, SK-MEL-28, 48 h; for GI50: read-out: GI50 MEL-28, SRB assay, 48 hours exposure; for CC50: read-out: LC50 MEL-28, SRB assay, 48 hours exposure; for TGI MEL-28: SRB assay, 48 hours exposure
Outline: as §1

HT-29 = test: Inhibition of cells growth by colorimetric (SRB) assay, HT-29; settings: for GI50 / CC50: Homo sapiens, HT-29, 48 h; for GI50: read-out: GI50 HT-29, SRB assay, 48 hours exposure; for CC50: read-out: LC50 HT-29, SRB assay, 48 hours exposure; for TGI HT-29: SRB assay, 48 hours exposure
Outline: as §1

SK-BR-3 = test: Inhibition of cells growth by colorimetric (SRB) assay, SK-BR-3; settings: for GI50 / CC50: Homo sapiens, SK-BR-3, 48 h; for GI50: read-out: GI50 SK-BR-3, SRB assay, 48 hours exposure; for CC50: read-out: LC50 SK-BR-3, SRB assay, 48 hours exposure; for TGI SK-BR-3: SRB assay, 48 hours exposure
Outline: as §1

IGROV-1 = test: Inhibition of cells growth by colorimetric (SRB) assay, IGROV-1; settings: for GI50 / CC50: Homo sapiens, IGROV-1, 48 h; for GI50: read-out: GI50 IGROV, SRB assay, 48 hours exposure; for CC50: read-out: LC50 IGROV, SRB assay, 48 hours exposure; for TGI IGROV: SRB assay, 48 hours exposure
Outline: as §1

## Cl.Nc1nccc(-c2c3cccnc3n3c(N)nccc23)n1 [Compound 51]
[1]
  CC50 at 48 h: 0.143 µM
HMEC1
  GI50: 0.0164 µM
  TGI H-MEC-1: 1.54E−08
DU-145
  GI50: 0.0654 µM
  CC50: 2.7 µM
  TGI DU-145: 1.48E−07
LoVo
  GI50: 0.0774 µM
  CC50: 16 µM
  TGI LOVO: 1.84E−07
K-562
  GI50: 0.311 µM
  CC50: 5.17 µM
  TGI K-562: 4.03E−07
IGROV-ET
  GI50: 0.0748 µM
  CC50: 18.6 µM
  TGI IGROV-ET: 2.25E−07
LNCaP
  GI50: 0.0737 µM
  CC50: 0.286 µM
  TGI LN-caP: 1.27E−07
SK-OV-3
  GI50: 0.146 µM
  CC50: 28.6 µM
  TGI SKOV-3: 2.15E−06
PANC-1
  GI50: 0.161 µM
  CC50: 28.6 µM
  TGI PANC-1: 2.73E−06
A-549
  GI50: 0.0999 µM
  CC50: 4.57 µM
  TGI A-549: 3.68E−07
LoVo-Dox
  GI50: 0.078 µM
  CC50: 17.9 µM
  TGI LOVO-DOX: 2.86E−07
SK-MEL-28
  GI50: 0.0925 µM
  CC50: 1.37 µM
  TGI MEL-28: 2.69E−07
HT-29
  GI50: 0.101 µM
  CC50: 28.6 µM
  TGI HT-29: 2.86E−07
SK-BR-3
  GI50: 0.0591 µM
  CC50: 0.554 µM
  TGI SK-BR-3: 1.42E−07
IGROV-1
  GI50: 0.0851 µM
  CC50: 2.12 µM
  TGI IGROV: 3.28E−07

## Nc1nccc(-c2c3cccnc3n3ccccc23)n1 [Compound 56]
[1]
  CC50 at 48 h: 22.3 µM
HMEC1
  GI50: 3.9 µM
  TGI H-MEC-1: 9.34E−06
DU-145
  GI50: 2.12 µM
  CC50: 25.6 µM
  TGI DU-145: 8.88E−06
LoVo
  GI50: 6.74 µM
  CC50: 38.3 µM
  TGI LOVO: 1.63E−05
K-562
  GI50: 8.23 µM
  CC50: 38.3 µM
  TGI K-562: 1.83E−05
IGROV-ET
  GI50: 11.5 µM
  CC50: 38.3 µM
  TGI IGROV-ET: 2.35E−05
LNCaP
  GI50: 5.93 µM
  CC50: 20.6 µM
  TGI LN-caP: 1.11E−05
SK-OV-3
  GI50: 7.12 µM
  CC50: 35.5 µM
  TGI SKOV-3: 1.59E−05
PANC-1
  GI50: 8.96 µM
  CC50: 38.3 µM
  TGI PANC-1: 1.94E−05
A-549
  GI50: 6.28 µM
  CC50: 34.9 µM
  TGI A-549: 1.48E−05
LoVo-Dox
  GI50: 5.93 µM
  CC50: 38.3 µM
  TGI LOVO-DOX: 1.66E−05
SK-MEL-28
  GI50: 7.73 µM
  CC50: 38.3 µM
  TGI MEL-28: 1.73E−05
HT-29
  GI50: 12.5 µM
  CC50: 38.3 µM
  TGI HT-29: 3.46E−05
SK-BR-3
  GI50: 5.32 µM
  CC50: 38.3 µM
  TGI SK-BR-3: 1.88E−05
IGROV-1
  GI50: 8.69 µM
  CC50: 38.3 µM
  TGI IGROV: 1.91E−05
